Assay results reported in patent publication US20070032465A1, “Pharmaceutical composition comprising a p2x7-receptor antagonist and a tumour necrosis factor alpha” (priority 2003, published 2007).

Test system: Streptococcal cell wall (SCW)-induced arthritis in female Lewis rats
Assay: Rat streptococcal cell wall (SCW)-induced arthritis: ankle swelling and von Frey mechanical threshold
Format: in vivo
Conditions: P2X7 antagonist 1 30 mg/kg oral bid, Etanercept 0.5 mg/kg s.c.; for % reduction of AUC (compared to arthritic vehicle control), Ankle swelling: AUC from day -1 to day 6 post-induction; for % reduction of AUC (compared to arthritic vehicle control), Von Frey threshold: von Frey filaments on days -1, 1, 3, 5
Excerpt: Assessment of Anti-Inflammatory Activity of TNFα Inhibitor/P2X7 Anatagonist Combinations in Rat Streptococcal Cell Wall-Induced Arthritis. ^1 1. Experimental procedure based on that described by Carlson R P, Jacobsen P B; ‘Comparison of adjuvant and streptococcal cell wall-induced arthritis in the rat’ in Morgan D W, Marshall L A, editors; In Vivo Models of Inflammation. Basel: Birkhauser Verlag; 1999.
Streptococcal cell wall (SCW)-induced arthritis was induced in the left ankle of female Lewis rats. Animals were sensitised by intra-articular injection of 5 μg (in 20 μL) SCW (Lee Laboratories) into the left ankle. Ankle swelling was assessed 3 days after injection and non-responders (animals with no apparent ankle swelling) were rejected. Responding animals were randomly allocated to the test groups.
Arthritis was induced 21 days after sensitisation by intravenous (iv) injection of SCW (100 μg in 500 μL saline). Animals were monitored and assessed on a daily basis through to termination 6 days after induction. The rats were housed on sawdust and provided with food and water ad libitum.
In this example the P2X7 antagonist 1, was orally dosed at 30 mg/kg (4 mL/kg, bid). The compound was dosed as a suspension in 1% (w/v) methylcellulose in deionised water and was freshly prepared on a daily basis. Dosing commenced 1 day prior to induction of arthritis and continued through to termination on day 6 post-induction. Etanercept (0.5 mg/kg) was administered by subcutaneous injection (1 mL/kg) 1 day prior to induction of arthritis and then on days 1, 3 and 5 post-induction.
Ankle diameters were measured with vernier callipers on a daily basis from day −1. Mechanical thresholds were assessed using von Frey filaments on days −1, 1, 3 and 5. The filaments were applied in increasing weights to the ankle region on the footpad of both feet. The first filament to induce a withdrawal response was considered to be the threshold.
Effects on ankle swelling and mechanical threshold were calculated on an area under the curve (AUC) basis, as the sum of the differences from individual day −1 values. The size and direction of the interaction was calculated and data analysis performed by ANOVA followed by Dunnett's test on the AUC data (SAS version 8.01).

Compound: Cc1ccc(C(=O)N2CC3CNCC(C2)O3)cc1NC(=O)CC12CC3CC(CC(C3)C1)C2.Cl [P2X7 antagonist 1, N-[2-Methyl-5-(9-oxa-3,7-diazabicyclo[3.3.1]non-3-ylcarbonyl)phenyl]-tricyclo[3.3.1.1^3,7]decane-1-acetamide, hydrochloride]
- % reduction of AUC (compared to arthritic vehicle control), Ankle swelling: 28.5 ± 13.5%
- % reduction of AUC (compared to arthritic vehicle control), Von Frey threshold: 21.1 ± 10.9%

Compound: Etanercept
- % reduction of AUC (compared to arthritic vehicle control), Ankle swelling: 44.0 ± 4.7 %
- % reduction of AUC (compared to arthritic vehicle control), Von Frey threshold: 7.4 ± 6.8%
